Source: patent US20220409619A1, “INHIBITORS OF HUMAN IMMUNODEFICIENCY VIRUS REPLICATION” (VIIV HEALTHCARE UK (No. 5) LIMITED, priority 2019, published 2022)

Key:
[1] = Compound cytotoxicity, XTT-based colorimetric assay; assay type: cell-based; details: human; uninfected MT2 cells, day 4, XTT-based colorimetric assay
How it was run: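 Run under the antiviral-assay protocol but without virus. Viability was read on day 4 and CC50 values were derived from the readout.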

[2] = test system: recombinant NL4-3 virus (nef section replaced with Renilla luciferase gene) in MT-2 cells; experiment: HIV cell culture assay (antiviral activity, luciferase readout); assay type: cell-based; details: Renilla, NL43
How it was run: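 MT-2 cells were infected for 4-5 days with 293T-derived NL4-3 Renilla-luciferase reporter virus in the presence of serial compound dilutions. Luciferase was read with EnduRen live-cell substrate. EC50 was fitted with the median effect equation.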

Compound | CC50 at 4 days [1] | EC50 [2]
Cn1nc(NS(C)(=O)=O)c2c(Cl)ccc(-n3c([C@H](Cc4cc(F)cc(F)c4)NC(=O)Cn4nc(C(F)F)c5c4C(F)(F)[C@@H]4C[C@H]54)nc(-c4ccccc4)cc3=O)c21 (atropisomer, axis not shown; (aR)) [Example 1, N-((S)-1-(1-(4-chloro-1-methyl-3-(methylsulfonamido)-1H-indazol-7-yl)-6-oxo-4-phenyl-1,6-dihydropyrimidin-2-yl)-2-(3,5-difluorophenyl)ethyl)-2-((3bS,4aR)-3-(difluoromethyl)-5,5-difluoro-3b,4,4a,5-tetrahydro-1H-cyclopropa[3,4]cyclopenta[1,2-c]pyrazol-1-yl)acetamide] | > 500 nM | 0.72 nM
Cn1nc(NS(C)(=O)=O)c2c(Cl)ccc(-n3c([C@@H](Cc4cc(F)cc(F)c4)NC(=O)Cn4nc(C(F)F)c5c4C(F)(F)[C@@H]4C[C@H]54)nc(-c4ccccc4)cc3=O)c21 (atropisomer, axis not shown; (aR)) [Example 2, N-((R)-1-(1-(4-chloro-1-methyl-3-(methylsulfonamido)-1H-indazol-7-yl)-6-oxo-4-phenyl-1,6-dihydropyrimidin-2-yl)-2-(3,5-difluorophenyl)ethyl)-2-((3bS,4aR)-3-(difluoromethyl)-5,5-difluoro-3b,4,4a,5-tetrahydro-1H-cyclopropa[3,4]cyclopenta[1,2-c]pyrazol-1-yl)acetamide] | > 500 nM | 190 nM
Cc1cc(C)nc(-c2cc(=O)n(-c3ccc(Cl)c4c(NS(C)(=O)=O)nn(C)c34)c([C@H](Cc3cc(F)cc(F)c3)NC(=O)Cn3nc(C(F)F)c4c3C(F)(F)[C@@H]3C[C@H]43)n2)n1 (atropisomer, axis not shown; (aR)) [Example 4, N-((S)-1-((1′P)-1′-(4-chloro-1-methyl-3-(methylsulfonamido)-1H-indazol-7-yl)-4,6-dimethyl-6′-oxo-1′,6′-dihydro-[2,4′-bipyrimidin]-2′-yl)-2-(3,5-difluorophenyl)ethyl)-2-((3bS,4aR)-3-(difluoromethyl)-5,5-difluoro-3b,4,4a,5-tetrahydro-1H-cyclopropa[3,4]cyclopenta[1,2-c]pyrazol-1-yl)acetamide] | > 100 nM | 0.044 nM
Cn1nc(NS(C)(=O)=O)c2c(Cl)ccc(-n3c([C@H](Cc4cc(F)cc(F)c4)NC(=O)Cn4nc(C(F)F)c5c4C(F)(F)[C@@H]4C[C@H]54)nc(-c4nccc(C(F)F)n4)cc3=O)c21 (atropisomer, axis not shown; (aR)) [Example 5, N-((S)-1-((1′P)-1′-(4-chloro-1-methyl-3-(methylsulfonamido)-1H-indazol-7-yl)-4-(difluoromethyl)-6′-oxo-1′,6′-dihydro-[2,4′-bipyrimidin]-2′-yl)-2-(3,5-difluorophenyl)ethyl)-2-((3bS,4aR)-3-(difluoromethyl)-5,5-difluoro-3b,4,4a,5-tetrahydro-1H-cyclopropa[3,4]cyclopenta[1,2-c]pyrazol-1-yl)acetamide] | > 100 nM | 0.054 nM
Cn1nc(NS(C)(=O)=O)c2c(Cl)ccc(-n3c([C@H](Cc4cc(F)cc(F)c4)NC(=O)Cn4nc(C(F)F)c5c4C(F)(F)[C@@H]4C[C@H]54)nc(-c4nccc(C(F)(F)F)n4)cc3=O)c21 (atropisomer, axis not shown; (aR)) [Example 6, N-((S)-1-((1′P)-1′-(4-chloro-1-methyl-3-(methylsulfonamido)-1H-indazol-7-yl)-6′-oxo-4-(trifluoromethyl)-1′,6′-dihydro-[2,4′-bipyrimidin]-2′-yl)-2-(3,5-difluorophenyl)ethyl)-2-((3bS,4aR)-3-(difluoromethyl)-5,5-difluoro-3b,4,4a,5-tetrahydro-1H-cyclopropa[3,4]cyclopenta[1,2-c]pyrazol-1-yl)acetamide] | > 100 nM | 0.054 nM
CCc1cnc(-c2cc(=O)n(-c3ccc(Cl)c4c(NS(C)(=O)=O)nn(C)c34)c([C@H](Cc3cc(F)cc(F)c3)NC(=O)Cn3nc(C(F)F)c4c3C(F)(F)[C@@H]3C[C@H]43)n2)nc1 (atropisomer, axis not shown; (aR)) [Example 12, N-((S)-1-((1′P)-1′-(4-chloro-1-methyl-3-(methylsulfonamido)-1H-indazol-7-yl)-5-ethyl-6′-oxo-1′,6′-dihydro-[2,4′-bipyrimidin]-2′-yl)-2-(3,5-difluorophenyl)ethyl)-2-((3bS,4aR)-3-(difluoromethyl)-5,5-difluoro-3b,4,4a,5-tetrahydro-1H-cyclopropa[3,4]cyclopenta[1,2-c]pyrazol-1-yl)acetamide] | > 100 nM | 0.019 nM
CCOc1cnc(-c2cc(=O)n(-c3ccc(Cl)c4c(NS(C)(=O)=O)nn(C)c34)c([C@H](Cc3cc(F)cc(F)c3)NC(=O)Cn3nc(C(F)F)c4c3C(F)(F)[C@@H]3C[C@H]43)n2)nc1 (atropisomer, axis not shown; (aR)) [Example 14, N-((S)-1-((1′P)-1′-(4-chloro-1-methyl-3-(methylsulfonamido)-1H-indazol-7-yl)-5-ethoxy-6′-oxo-1′,6′-dihydro-[2,4′-bipyrimidin]-2′-yl)-2-(3,5-difluorophenyl)ethyl)-2-((3bS,4aR)-3-(difluoromethyl)-5,5-difluoro-3b,4,4a,5-tetrahydro-1H-cyclopropa[3,4]cyclopenta[1,2-c]pyrazol-1-yl)acetamide] | > 100 nM | 0.042 nM
O=C(Cn1nc(C(F)F)c2c1C(F)(F)[C@@H]1C[C@H]21)N[C@@H](Cc1cc(F)cc(F)c1)c1nc(-c2nccc(C(F)F)n2)cc(=O)n1-c1ccc(Cl)c2c(NS(=O)(=O)C3CC3)nn(CC(F)F)c12 (atropisomer, axis not shown; (aR)) [Example 27, N-((S)-1-((1′P)-1′-(4-chloro-3-(cyclopropanesulfonamido)-1-(2,2-difluoroethyl)-1H-indazol-7-yl)-4-(difluoromethyl)-6′-oxo-1′,6′-dihydro-[2,4′-bipyrimidin]-2′-yl)-2-(3,5-difluorophenyl)ethyl)-2-((3bS,4aR)-3-(difluoromethyl)-5,5-difluoro-3b,4,4a,5-tetrahydro-1H-cyclopropa[3,4]cyclopenta[1,2-c]pyrazol-1-yl)acetamide] | > 100 nM | 0.13 nM
CCOc1cnc(-c2cc(=O)n(-c3ccc(Cl)c4c(NS(=O)(=O)C5CC5)nn(CC(F)F)c34)c([C@H](Cc3cc(F)cc(F)c3)NC(=O)Cn3nc(C(F)F)c4c3C(F)(F)[C@@H]3C[C@H]43)n2)nc1 (atropisomer, axis not shown; (aR)) [Example 29, N-((S)-1-((1′P)-1′-(4-chloro-3-(cyclopropanesulfonamido)-1-(2,2-difluoroethyl)-1H-indazol-7-yl)-5-ethoxy-6′-oxo-1′,6′-dihydro-[2,4′-bipyrimidin]-2′-yl)-2-(3,5-difluorophenyl)ethyl)-2-((3bS,4aR)-3-(difluoromethyl)-5,5-difluoro-3b,4,4a,5-tetrahydro-1H-cyclopropa[3,4]cyclopenta[1,2-c]pyrazol-1-yl)acetamide] | > 100 nM | 0.052 nM
